“Also recorded” adds a separate entry of the source. Like-named read-outs stand apart in the source and are kept apart here.
What was measured:
[1] = target: T1, ELIC (Dickeya chrysanthemi, UniProt P0C7B7); assay: cell-based; type: cell-based, Erwinia chrysanthemi
T1 construct: expressed in transfected cells; host or cells: Xenopus laevis oocytes (cRNA injection, pTLN vector)
From the text: To identify ligands that activate ELIC we have expressed the protein in Xenopus laevis oocytes and investigated the response to potential agonists by the two-electrode voltage-clamp technique. Based on the volume and chemical properties of the proposed ligand binding region and the presence of positively charged ions bound to this site, we reasoned that parts of the agonists might have a cationic character. […] Our library included different natural products such as amino acids and their derivatives, metabolites, and related synthetic substances (Figure S3A).
Constructs containing the gene of either the WT channel or point mutants preceded by the signal sequence of the chicken α7nAchR were cloned into the pTLN vector for expression in X. laevis oocytes. After linearization of the plasmid DNA by MluI, capped complementary RNA was transcribed with the mMessage mMachine kit (Ambion) and purified with the RNeasy kit (Qiagen). For expression, 1–50 ng of RNA was injected into defolliculated oocytes. Two-electrode voltage clamp measurements were performed one day after injection at 20°C (OC-725B, Warner Instrument Corp.). […] Cysteamine containing solutions were supplemented with 1 mM DTT.

[2] = target: T1, ELIC; assay: Patch clamp of excised outside-out patches, fast solution exchange (activation and deactivation kinetics); type: cell-based, Erwinia chrysanthemi; conditions: -60 mV, n = 19, errors s.d., upper limit
Experimental: We have thus used this molecule as an agonist in most subsequent experiments. […] Stable currents over a period of seconds were obtained upon addition of high micromolar concentrations of cysteamine to the extracellular medium (Figure 3A). At longer incubations with the ligand, however, the currents decayed, which is indicative for a slow desensitization of the channel (Figure S4A). […] To follow the time-course of activation and deactivation, we have investigated excised outside-out patches in response to fast solution exchange. A similar phenotype of currents as previously seen in two-electrode voltage clamp recordings, although with faster kinetics of desensitization, was also observed for macroscopic currents in a patch clamp experiment (Figure 3B, Figure S4B). At 5 mM cysteamine, channel activation and deactivation can be approximated by exponential functions with time constants in the ms range (τact = 20±5 ms, n = 19, τdeact = 53±7 ms, n = 19, all errors are s.d.). […]
Membrane patches of X. laevis oocytes were recorded in the excised outside-out configuration 2–3 d after injection of mRNA with an Axopatch 200B amplifier (Axon Instruments) at 20°C. Data were sampled at 100 µs, filtered with 1,000 Hz, and analyzed using Clampfit (Axon Instruments, Inc.). […]

[3] = target: T2, ELIC F246A (Dickeya chrysanthemi, UniProt P0C7B7, F246A); assay: Two-electrode voltage clamp of ELIC pore mutant F246A in oocytes; type: cell-based, Erwinia chrysanthemi
T2 construct: expressed in transfected cells; host or cells: Xenopus laevis oocytes (cRNA injection, pTLN vector)
T2 sequence (P0C7B7 whole entry F246A): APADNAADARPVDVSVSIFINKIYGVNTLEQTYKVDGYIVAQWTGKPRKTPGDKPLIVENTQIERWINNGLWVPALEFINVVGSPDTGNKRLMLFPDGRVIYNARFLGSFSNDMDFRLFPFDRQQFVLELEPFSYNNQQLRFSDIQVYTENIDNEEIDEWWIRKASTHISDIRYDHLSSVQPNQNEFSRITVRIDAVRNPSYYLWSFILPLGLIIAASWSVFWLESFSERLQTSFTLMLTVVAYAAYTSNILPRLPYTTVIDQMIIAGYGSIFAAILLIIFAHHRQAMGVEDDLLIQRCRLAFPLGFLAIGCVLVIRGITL
From the text: In contrast to the extracellular domain, the pore of ELIC resembles cation selective members of the family that include nAChRs, serotonin receptors, and the prokaryotic channel GLIC (Figure S1G). In cation selective pLGICs, three layers of hydrophobic side-chains provide an overall apolar character to the extracellular half of the pore region while the following two layers of polar residues and a layer of negatively charged residues render the intracellular half hydrophilic,[30]. […] To investigate the role of this aromatic group for channel opening, we have mutated it to alanine and studied the mutant by X-ray crystallography and electrophysiology. […] This shift is due to a mutation of a residue located remote from the ligand binding site and thus likely reflects a decreased efficacy of the channel.
(§1) Constructs containing the gene of either the WT channel or point mutants preceded by the signal sequence of the chicken α7nAchR were cloned into the pTLN vector for expression in X. laevis oocytes. After linearization of the plasmid DNA by MluI, capped complementary RNA was transcribed with the mMessage mMachine kit (Ambion) and purified with the RNeasy kit (Qiagen). For expression, 1–50 ng of RNA was injected into defolliculated oocytes. […] Currents were recorded in bath solutions containing 10 mM HEPES (pH 7), 130 mM NaCl, and the respective ligands. […]

[4] = Protonation of the sulfhydryl group of cysteamine; type: physicochemical; conditions: at the pH of the recording solution
[5] = target: T3, ELIC F19A (Dickeya chrysanthemi, UniProt P0C7B7, F19A); assay: Two-electrode voltage clamp of ELIC point mutant F19A in oocytes; type: cell-based, Erwinia chrysanthemi; conditions: read-out: EC50 of activation
T3 construct: expressed in transfected cells; host or cells: Xenopus laevis oocytes (cRNA injection, pTLN vector)
T3 sequence (P0C7B7 whole entry F19A): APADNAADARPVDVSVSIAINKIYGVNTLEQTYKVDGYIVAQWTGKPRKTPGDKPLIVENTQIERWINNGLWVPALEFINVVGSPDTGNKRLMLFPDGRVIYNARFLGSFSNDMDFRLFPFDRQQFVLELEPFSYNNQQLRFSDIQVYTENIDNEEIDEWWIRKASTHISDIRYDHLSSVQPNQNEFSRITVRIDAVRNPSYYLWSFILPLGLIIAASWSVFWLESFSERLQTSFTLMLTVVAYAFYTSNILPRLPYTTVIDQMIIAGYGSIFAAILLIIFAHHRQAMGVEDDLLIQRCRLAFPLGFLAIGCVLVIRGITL
From the text: (§2) To investigate the role of residues surrounding the bound ligand for channel activation, we have mutated single residues to alanine and we have measured activation with the two-electrode voltage-clamp technique (Table 2). For many mutants there was no response to the addition of cysteamine. This was the case for all investigated residues of the principal site, such as Glu77 and Glu131, that may interact with the primary amino group and hydrophobic and aromatic residues (i.e., Phe187, Phe133, Tyr174, Ile79) that surround the aliphatic carbon atoms of the ligand. The effect of mutations on the complementary side, in contrast, was diverse and in some cases less drastic. The mutations of Phe19 on β-1 and Val40 on β-2 shifted the activation towards higher agonist concentrations (Figure 4B).
as §1

[6] = target: T4, ELIC Glu131 mutated to alanine (Dickeya chrysanthemi, UniProt P0C7B7, E131A); assay: Two-electrode voltage clamp of ELIC Glu131 alanine mutant; type: cell-based, Erwinia chrysanthemi
T4 construct: expressed in transfected cells; host or cells: Xenopus laevis oocytes (cRNA injection, pTLN vector)
T4 sequence (P0C7B7 whole entry E131A): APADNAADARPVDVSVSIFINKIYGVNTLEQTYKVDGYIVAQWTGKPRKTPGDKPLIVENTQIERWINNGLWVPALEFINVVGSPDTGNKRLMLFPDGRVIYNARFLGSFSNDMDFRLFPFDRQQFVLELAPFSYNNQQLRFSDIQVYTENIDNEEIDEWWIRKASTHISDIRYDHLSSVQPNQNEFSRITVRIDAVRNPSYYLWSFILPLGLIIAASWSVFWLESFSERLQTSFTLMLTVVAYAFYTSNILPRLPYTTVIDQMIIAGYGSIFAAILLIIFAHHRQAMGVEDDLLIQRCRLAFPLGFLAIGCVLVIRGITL
From the text: as §2, §1

[7] = target: T5, ELIC Tyr174 mutated to alanine (Dickeya chrysanthemi, UniProt P0C7B7, Y174A); assay: Two-electrode voltage clamp of ELIC Tyr174 alanine mutant; type: cell-based, Erwinia chrysanthemi
T5 construct: expressed in transfected cells; host or cells: Xenopus laevis oocytes (cRNA injection, pTLN vector)
T5 sequence (P0C7B7 whole entry Y174A): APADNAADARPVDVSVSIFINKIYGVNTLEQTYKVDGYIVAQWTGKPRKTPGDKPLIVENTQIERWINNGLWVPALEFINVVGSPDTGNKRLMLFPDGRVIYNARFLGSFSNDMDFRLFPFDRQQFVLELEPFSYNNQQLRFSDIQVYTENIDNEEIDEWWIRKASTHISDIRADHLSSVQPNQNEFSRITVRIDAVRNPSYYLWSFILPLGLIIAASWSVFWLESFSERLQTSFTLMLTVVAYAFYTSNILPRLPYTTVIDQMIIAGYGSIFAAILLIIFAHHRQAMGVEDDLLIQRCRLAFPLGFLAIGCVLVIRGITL
From the text: as §2, §1

[8] = target: T6, ELIC Ile79 mutated to alanine (Dickeya chrysanthemi, UniProt P0C7B7, I79A); assay: Two-electrode voltage clamp of ELIC Ile79 alanine mutant; type: cell-based, Erwinia chrysanthemi
T6 construct: expressed in transfected cells; host or cells: Xenopus laevis oocytes (cRNA injection, pTLN vector)
T6 sequence (P0C7B7 whole entry I79A): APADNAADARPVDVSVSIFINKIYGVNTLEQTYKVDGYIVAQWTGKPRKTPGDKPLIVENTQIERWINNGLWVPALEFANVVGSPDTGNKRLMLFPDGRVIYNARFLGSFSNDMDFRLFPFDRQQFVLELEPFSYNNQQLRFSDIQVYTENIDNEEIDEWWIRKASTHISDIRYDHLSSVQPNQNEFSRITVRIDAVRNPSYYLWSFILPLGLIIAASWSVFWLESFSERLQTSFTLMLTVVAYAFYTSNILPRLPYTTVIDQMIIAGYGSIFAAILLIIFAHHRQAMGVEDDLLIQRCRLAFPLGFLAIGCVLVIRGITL
From the text: as §2, §1

[9] = target: T7, ELIC Glu77 mutated to alanine (Dickeya chrysanthemi, UniProt P0C7B7, E77A); assay: Two-electrode voltage clamp of ELIC Glu77 alanine mutant; type: cell-based, Erwinia chrysanthemi
T7 construct: expressed in transfected cells; host or cells: Xenopus laevis oocytes (cRNA injection, pTLN vector)
T7 sequence (P0C7B7 whole entry E77A): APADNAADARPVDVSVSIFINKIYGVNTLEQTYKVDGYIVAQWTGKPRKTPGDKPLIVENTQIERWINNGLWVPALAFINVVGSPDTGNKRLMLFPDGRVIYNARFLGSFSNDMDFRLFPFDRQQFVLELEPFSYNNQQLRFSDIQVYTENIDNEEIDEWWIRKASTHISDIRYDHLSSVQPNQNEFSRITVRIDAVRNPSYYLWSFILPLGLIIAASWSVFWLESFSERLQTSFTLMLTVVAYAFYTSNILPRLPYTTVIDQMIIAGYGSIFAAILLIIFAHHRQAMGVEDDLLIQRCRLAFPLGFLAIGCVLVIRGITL
From the text: as §2, §1

[10] = target: T8, ELIC Asn103 mutated to alanine (Dickeya chrysanthemi, UniProt P0C7B7, N103A); assay: Two-electrode voltage clamp of ELIC Asn103 alanine mutant; type: cell-based, Erwinia chrysanthemi
T8 construct: expressed in transfected cells; host or cells: Xenopus laevis oocytes (cRNA injection, pTLN vector)
T8 sequence (P0C7B7 whole entry N103A): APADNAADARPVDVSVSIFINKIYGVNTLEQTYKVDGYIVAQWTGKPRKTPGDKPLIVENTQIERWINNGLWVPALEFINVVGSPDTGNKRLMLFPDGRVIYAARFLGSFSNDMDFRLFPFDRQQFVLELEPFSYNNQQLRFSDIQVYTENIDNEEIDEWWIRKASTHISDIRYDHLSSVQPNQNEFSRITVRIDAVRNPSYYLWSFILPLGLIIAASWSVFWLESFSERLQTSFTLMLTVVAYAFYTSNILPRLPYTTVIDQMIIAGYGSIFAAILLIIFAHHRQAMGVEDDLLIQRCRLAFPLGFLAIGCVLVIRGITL
From the text: as §2, §1

[11] = target: T9, ELIC R91A (Dickeya chrysanthemi, UniProt P0C7B7, R91A); assay: Two-electrode voltage clamp of ELIC point mutant R91A in oocytes; type: cell-based, Erwinia chrysanthemi; conditions: for n (Hill coefficient) / EC50: mutant R91A; for fold decrease of the EC50: mutant R91A compared with WT; for EC50: read-out: EC50 of activation
T9 construct: expressed in transfected cells; host or cells: Xenopus laevis oocytes (cRNA injection, pTLN vector)
T9 sequence (P0C7B7 whole entry R91A): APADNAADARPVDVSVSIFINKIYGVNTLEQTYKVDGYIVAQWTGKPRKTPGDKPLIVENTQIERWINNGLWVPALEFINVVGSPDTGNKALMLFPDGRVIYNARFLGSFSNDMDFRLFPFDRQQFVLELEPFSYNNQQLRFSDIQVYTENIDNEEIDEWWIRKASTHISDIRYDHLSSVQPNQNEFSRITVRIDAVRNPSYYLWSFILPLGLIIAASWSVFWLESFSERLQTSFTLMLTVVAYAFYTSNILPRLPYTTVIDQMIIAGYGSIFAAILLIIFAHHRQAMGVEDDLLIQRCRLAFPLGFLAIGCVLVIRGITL
From the text: as §2
(§3) Constructs containing the gene of either the WT channel or point mutants preceded by the signal sequence of the chicken α7nAchR were cloned into the pTLN vector for expression in X. laevis oocytes. After linearization of the plasmid DNA by MluI, capped complementary RNA was transcribed with the mMessage mMachine kit (Ambion) and purified with the RNeasy kit (Qiagen). For expression, 1–50 ng of RNA was injected into defolliculated oocytes. Two-electrode voltage clamp measurements were performed one day after injection at 20°C (OC-725B, Warner Instrument Corp.). Currents were recorded in bath solutions containing 10 mM HEPES (pH 7), 130 mM NaCl, and the respective ligands. Cysteamine containing solutions were supplemented with 1 mM DTT.

[12] = target: T10, ELIC V40A (Dickeya chrysanthemi, UniProt P0C7B7, V40A); assay: Two-electrode voltage clamp of ELIC point mutant V40A in oocytes; type: cell-based, Erwinia chrysanthemi; conditions: for EC50: read-out: EC50 of activation
T10 construct: expressed in transfected cells; host or cells: Xenopus laevis oocytes (cRNA injection, pTLN vector)
T10 sequence (P0C7B7 whole entry V40A): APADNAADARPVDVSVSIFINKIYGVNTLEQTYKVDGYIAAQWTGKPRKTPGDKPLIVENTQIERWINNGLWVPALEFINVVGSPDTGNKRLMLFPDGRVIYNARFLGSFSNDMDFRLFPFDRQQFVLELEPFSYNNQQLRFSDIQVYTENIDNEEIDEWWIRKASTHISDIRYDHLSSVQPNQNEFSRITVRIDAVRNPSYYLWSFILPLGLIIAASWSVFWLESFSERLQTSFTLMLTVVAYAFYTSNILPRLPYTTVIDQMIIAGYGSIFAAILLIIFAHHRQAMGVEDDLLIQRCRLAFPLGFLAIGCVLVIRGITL
From the text: as §2, §3

[13] = target: T11, ELIC Phe187 mutated to alanine (Dickeya chrysanthemi, UniProt P0C7B7, F187A); assay: Two-electrode voltage clamp of ELIC Phe187 alanine mutant; type: cell-based, Erwinia chrysanthemi
T11 construct: expressed in transfected cells; host or cells: Xenopus laevis oocytes (cRNA injection, pTLN vector)
T11 sequence (P0C7B7 whole entry F187A): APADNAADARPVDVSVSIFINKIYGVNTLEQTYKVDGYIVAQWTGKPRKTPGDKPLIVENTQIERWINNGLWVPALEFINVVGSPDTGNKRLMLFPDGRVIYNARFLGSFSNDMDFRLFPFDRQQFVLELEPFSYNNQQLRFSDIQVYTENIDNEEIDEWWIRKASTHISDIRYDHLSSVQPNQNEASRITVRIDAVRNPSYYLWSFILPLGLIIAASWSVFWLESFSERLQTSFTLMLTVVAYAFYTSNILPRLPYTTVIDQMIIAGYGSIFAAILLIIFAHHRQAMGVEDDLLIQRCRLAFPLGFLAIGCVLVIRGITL
From the text: as §2, §1

[14] = target: T12, ELIC Phe133 mutated to alanine (Dickeya chrysanthemi, UniProt P0C7B7, F133A); assay: Two-electrode voltage clamp of ELIC Phe133 alanine mutant; type: cell-based, Erwinia chrysanthemi
T12 construct: expressed in transfected cells; host or cells: Xenopus laevis oocytes (cRNA injection, pTLN vector)
T12 sequence (P0C7B7 whole entry F133A): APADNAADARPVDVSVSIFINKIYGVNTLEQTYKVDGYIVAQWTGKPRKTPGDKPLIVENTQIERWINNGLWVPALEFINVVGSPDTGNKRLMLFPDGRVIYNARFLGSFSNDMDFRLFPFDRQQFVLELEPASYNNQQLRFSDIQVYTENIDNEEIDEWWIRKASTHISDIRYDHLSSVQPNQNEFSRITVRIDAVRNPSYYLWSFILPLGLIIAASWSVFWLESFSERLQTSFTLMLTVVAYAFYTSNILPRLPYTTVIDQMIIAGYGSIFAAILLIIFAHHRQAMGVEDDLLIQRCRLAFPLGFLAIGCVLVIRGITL
From the text: as §2, §1

[15] = WT, pH 7.0, two-electrode voltage clamp, -60 mV, fit to Hill equation, read-out: EC50 of activation of ELIC
[16] = ligand added to the extracellular solution, 10 mM, -60 mV, compared with 2 mM cysteamine
[17] = pH 7.0, averages and s.d. of six measurements
[18] = WT, pH 8.0, two-electrode voltage clamp, -60 mV, read-out: EC50 of activation of ELIC
[19] = pH 9.0, averages and s.d. of six measurements

T1 sequence (P0C7B7 whole entry): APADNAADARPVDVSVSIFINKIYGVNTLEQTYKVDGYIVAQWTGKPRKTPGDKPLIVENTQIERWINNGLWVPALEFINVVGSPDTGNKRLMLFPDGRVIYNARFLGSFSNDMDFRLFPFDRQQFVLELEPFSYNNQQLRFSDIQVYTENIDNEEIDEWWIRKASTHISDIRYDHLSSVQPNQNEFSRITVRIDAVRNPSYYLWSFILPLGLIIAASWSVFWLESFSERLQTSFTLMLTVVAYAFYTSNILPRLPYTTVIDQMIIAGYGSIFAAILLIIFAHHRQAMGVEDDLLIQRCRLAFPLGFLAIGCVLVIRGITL

NCCCC(=O)O [GABA]
n (Hill coefficient) ([1]; WT, pH 7.0): 3.9
EC50 [1, 15]: 2400 µM
activating current response of ELIC to the ligand [1, 16]: activating response at low mM concentrations
Imax/Imax cysteamine [1, 17]: 0.79±0.09

NCCCCCN [cadaverine]
activating current response of ELIC to the ligand [1, 16]: not

NCCC(=O)O [beta-alanine]
activating current response of ELIC to the ligand [1]: absent

NCCCCO
n (Hill coefficient) ([1]; WT, pH 7.0): 2.9
EC50 [1, 15]: 1700 µM
activating current response of ELIC to the ligand [1, 16]: strong activation
Imax/Imax cysteamine [1, 17]: 0.98±0.03

NCCCBr [bromopropylamine]
n (Hill coefficient) ([1]; WT, pH 7.0): 3.9
EC50 [1, 15]: 1100 µM
activating current response of ELIC to the ligand [1, 16]: opening the channel
Imax/Imax cysteamine [1, 17]: 0.71±0.03

NCCS [cysteamine]
τact, time constant of channel activation ([2]; 5 mM cysteamine): 20 ± 5 ms
τdeact, time constant of channel deactivation ([2]; washout of 5 mM cysteamine): 53 ± 7 ms
n (Hill coefficient) [3]: 3.0
EC50 ([3]; read-out: EC50 of activation): 2590 µM
sulfhydryl groups protonated [4]: > 96%
EC50 [5]: > 10000 µM
response to the addition of the ligand [6]: no response
response to the addition of the ligand [7]: no response
response to the addition of the ligand [8]: no response
n (Hill coefficient) ([1]; WT, pH 7.0): 2.7
EC50 [1, 15]: 365 µM
EC50 ([1]; WT, voltage-independent activation, read-out: EC50 of activation of ELIC): 365 µM
activating current response of ELIC to the ligand [1, 16]: most efficacious; also recorded: strongest response at low ligand concentration
Imax/Imax cysteamine [1, 17]: 1
response to the addition of the ligand [9]: no response
response to the addition of the ligand [10]: did not show an activating response
n (Hill coefficient) [11]: 2.6
fold decrease of the EC50 [11]: 4 fold
EC50 [11]: 87 µM
n (Hill coefficient) [12]: 2.6
EC50 [12]: 1900 µM
response to the addition of the ligand [13]: no response
response to the addition of the ligand [14]: no response

NCC(=O)O [glycine]
activating current response of ELIC to the ligand [1]: absent

NCCCCN [putrescine]
EC50 [1]: 16000 µM
activating current response of ELIC to the ligand [1]: activate ELIC; also recorded: only observed at higher pH
n (Hill coefficient) ([1]; pH 8): 2.4
n (Hill coefficient), concentration of monovalent putrescine ([1]; pH 8): 2.4
Imax/Imax cysteamine ([1]; pH 9): 1.03±0.07

NCCN
n (Hill coefficient) ([1]; WT, pH 8.0): 3.2
EC50 [1, 18]: 2000 µM
activating current response of ELIC to the ligand [1, 16]: activate ELIC
activating current response of ELIC to the ligand ([1]; ligand added to the extracellular solution, 10 mM, -60 mV, compared with 2 mM cysteamine, listed as aminoethane): already active at neutral conditions
Imax/Imax cysteamine [1, 19]: 1.07±0.06

aminopropanol
n (Hill coefficient) ([1]; WT, pH 7.0): 3.2
EC50 [1, 15]: 1200 µM
activating current response of ELIC to the ligand [1, 16]: strong activation
Imax/Imax cysteamine [1, 17]: 1.00±0.014
n (Hill coefficient) [11]: 2.45
fold decrease of the EC50 [11]: 2 fold
EC50 [11]: 511 µM
EC50 [12]: > 10000 µM

CCCCN [butylamine]
activating current response of ELIC to the ligand [1, 16]: weak

CCN [Ethylamine]
activating current response of ELIC to the ligand [1, 16]: activate the channel

NCCCS [homocysteamine]
activating current response of ELIC to the ligand [1, 16]: small

diaminopropane
n (Hill coefficient) ([1]; WT, pH 8.0): 3.1
EC50 [1, 18]: 3000 µM
Imax/Imax cysteamine [1, 19]: 1.08±0.03

NCCBr [bromoethylamine]
n (Hill coefficient) ([1]; WT, pH 7.0): 3.1
EC50 [1, 15]: 885 µM
activating current response of ELIC to the ligand [1, 16]: opening the channel
Imax/Imax cysteamine [1, 17]: 0.94±0.04

CC(=O)OCC[N+](C)(C)C [acetylcholine]
activating current response of ELIC to the ligand [1, 16]: ineffective

CC(C)N [isopropylamine]
activating current response of ELIC to the ligand [1, 16]: weak

CCCN [aminopropane]
n (Hill coefficient) ([1]; WT, pH 7.0): 3.0
EC50 [1, 15]: 446 µM
activating current response of ELIC to the ligand [1, 16]: activate the channel
Imax/Imax cysteamine [1, 17]: 0.99±0.02

Reference: PMC3119659, “Ligand Activation of the Prokaryotic Pentameric Ligand-Gated Ion Channel ELIC” (PLoS Biology, 2011)
